Measured values reported in patent US20250000088A1, “ANT CONTROL AGENT AND ANT CONTROL METHOD” (Shin-Etsu Chemical Co., Ltd., priority 2021, published 2025).

Test system: worker ants of Myrmica ruginodis
Assay: Bioassay for selection of odor source (two arms of a four-arm olfactometer)
Format: in vivo
Conditions: 10 ants per group, 3 repetitions, max 5 min
Method: Bioassays were performed using the worker ants of Myrmica ruginodis which had been collected in Niigata Prefecture in Japan. The bioassays were performed using only two arms of a four-arm olfactometer (classic 4-Choice Arena Orfactometer, Sigma Scientific LLC) as shown in FIG. 5. Pure air filled in a 47 L gas cylinder was used as an air source, and the air flow rate was adjusted by a regulator. […] The ants were used as each group consisting of 10 ants, the test was started at the time of entering the ants from the inlet 1, and the selection for the odor source was made for a maximum of 5 minutes per repetition. The choice of odor source was determined by counting the number of ants in the insect separation chamber 2 at the end of the test. Five minutes after the start of the experiment, and when all 10 ants selected any one of odor sources, the results were recorded, and the tested ants were removed. Then three repetitions (using a total of 30 ants) of experiments were performed. Each cotton swab serving as an odor source was installed in each odor source installation adapter 3, and was replaced with a new one at every repetition. The glassware was washed after each repetition, and the odor source installation adapter for installing an odor source in the olfactometer was selected randomly. […]

SMILES: CCCCCC(=O)CC [3-octanone]
- number of ants gathering at the odor source (choice of odor source) (cotton swab containing 1.1 mg of mixture (3-octanone diluted with distilled water with Triton X-100) vs distilled water control, FIG. 2): gathered in the alarm pheromone compound treatment section
- number of ants gathering at the odor source (choice of odor source) (cotton swab containing 7.6 mg of mixture (3-octanone diluted in distilled water with Triton X-100) vs distilled water control, FIG. 1): gathered in the control section, while avoiding the alarm pheromone compound treatment section
